The numbers were not newly measured in patent US20070184116A1, “Pharmaceutical formulation containing unmilled flutamide” (priority 2004, published 2007), which cites them from elsewhere.

On to `CC(C)C(=O)Nc1ccc([N+](=O)[O-])c(C(F)(F)F)c1` [Flutamide, 2-methyl-N-[4-nitro-3-(trifluoromethyl)phenyl]propanamide], for which the “solubility in acid medium” value (acid medium, for example 0.1% hydrochloric acid (pH corresponds to gastric juice)) was “virtually insoluble”. Moreover, the solubility in water entry (water) is on record as “virtually insoluble”.
